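Five compound concentrations were applied to cells in 96-well plates for 48 hours; endpoints were derived by simple linear interpolation of the resulting dose-response curve. GI50: concentration for 50% inhibition of growth. TGI is the concentration that stops growth completely.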

Test systems include 786-0 renal; HOP-62 NSCLC; HOP-92 NSCLC; K-562 leukemia; OVCAR-5 ovarian; SF-268 CNS; SF-539 CNS; SK-MEL-5 melanoma; SNB-19 CNS; U251 CNS.
What all share (assay): inhibition of tumour cell growth, NCI panel, 48 h

As for `O=C1CSC(=S)N1c1ccco1`, the TGI is 61 µM with 786-0 renal; above 100 µM with HOP-62 NSCLC; above 100 µM in the test on HOP-92 NSCLC; above 100 µM in the test on K-562 leukemia; above 100 µM in the test with OVCAR-5 ovarian; above 100 µM in the test on SF-268 CNS. Further, the TGI with SF-539 CNS, in the test with SK-MEL-5 melanoma, in the test with SNB-19 CNS and with U251 CNS was above 100 µM each time.
Turning to `O=c1oc2ccc(I)cc2c(=O)n1-c1ccc(F)cc1F`, the GI50 was 3.03 µM in the test with 786-0 renal; 2.16 µM with HOP-62 NSCLC; 0.7 µM in the test with HOP-92 NSCLC; 2.56 µM in the test with K-562 leukemia; 3.96 µM in the test on OVCAR-5 ovarian; 2.86 µM in the test with SF-268 CNS. The GI50 with SF-539 CNS is 2.79 µM; with SK-MEL-5 melanoma, 1.53 µM; with SNB-19 CNS it was 2.63 µM; with U251 CNS, 2.64 µM. Further, the TGI with 786-0 renal is 9.67 µM; in the test with HOP-62 NSCLC it was 6.09 µM; in the test on HOP-92 NSCLC, 3.78 µM; with K-562 leukemia it was above 100 µM; in the test with OVCAR-5 ovarian, above 100 µM; in the test with SF-268 CNS, 27.1 µM. For the same compound, the TGI in the test with SF-539 CNS was 9.51 µM; with SK-MEL-5 melanoma, 3.03 µM; with SNB-19 CNS it was above 100 µM; with U251 CNS, 19 µM.
On to `O=C(CCl)NCCNc1nccc(Nc2ccc(S(=O)(=O)Nc3ccccn3)cc2)n1`, for which the GI50 with 786-0 renal is 3.25 µM; in the test with HOP-62 NSCLC it was 2.17 µM; in the test with HOP-92 NSCLC, 3.46 µM; in the test with K-562 leukemia, 2.57 µM; in the test with OVCAR-5 ovarian, 2.28 µM; in the test with SF-268 CNS, 2.63 µM. Also, the GI50 with SF-539 CNS is 1.85 µM; in the test on SK-MEL-5 melanoma it was 1.53 µM; with SNB-19 CNS it was 2.42 µM; in the test with U251 CNS, 1.21 µM. The TGI turned out to be 11.7 µM in the test with 786-0 renal; 5.46 µM in the test on HOP-62 NSCLC; 9.09 µM in the test with HOP-92 NSCLC; 17 µM in the test on K-562 leukemia; 5.1 µM in the test on OVCAR-5 ovarian; 12.9 µM in the test on SF-268 CNS. Also, the TGI came out at 3.9 µM with SF-539 CNS, 2.94 µM in the test with SK-MEL-5 melanoma, 7.56 µM in the test with SNB-19 CNS and 3.43 µM with U251 CNS.
`O=C(O)[C@H](Cc1c[nH]c2ccccc12)N1C(=O)c2ccccc2C1=O`: the TGI with 786-0 renal, with HOP-62 NSCLC, in the test with HOP-92 NSCLC, in the test on K-562 leukemia, with OVCAR-5 ovarian and in the test on SF-268 CNS was above 100 µM in each case. Moreover, the TGI in the test with SF-539 CNS, in the test with SK-MEL-5 melanoma, in the test with SNB-19 CNS and in the test with U251 CNS was above 100 µM in each case. Moreover, the GI50 in the test with HOP-92 NSCLC is 72.3 µM; in the test on K-562 leukemia, above 100 µM.
`CC1=CC(C)=NN=C(N)N1S(=O)(=O)c1cc(C)c(Cl)cc1SCc1ccccc1`: the GI50 with 786-0 renal was 73.4 µM; in the test on HOP-62 NSCLC, 72.4 µM; in the test with HOP-92 NSCLC, 3.82 µM; in the test on K-562 leukemia, 9.22 µM; with OVCAR-5 ovarian, above 100 µM; in the test with SF-268 CNS it was 35.1 µM. Also, the GI50 with SF-539 CNS was above 100 µM; with SK-MEL-5 melanoma it was 40.7 µM; in the test on SNB-19 CNS, 30.3 µM; in the test on U251 CNS it was 16.8 µM. Also, the TGI in the test with 786-0 renal was above 100 µM; with HOP-62 NSCLC it was above 100 µM; in the test with HOP-92 NSCLC, 38.8 µM; in the test on K-562 leukemia, above 100 µM; with OVCAR-5 ovarian, above 100 µM; in the test on SF-268 CNS, above 100 µM. Moreover, the TGI with SF-539 CNS, with SK-MEL-5 melanoma, in the test on SNB-19 CNS and in the test with U251 CNS was above 100 µM throughout.
With `CCCCN1CCCC[C@@H]1C(=O)N[C@H](C(=O)N(C)[C@H](C[C@@H](OC(C)=O)c1nc(C(=O)NC2CCC(C(=O)OC)CC2)cs1)C(C)C)C(C)C` (some centres not stated), the GI50 with 786-0 renal is 1.5 µM; with HOP-62 NSCLC, 2.35 µM; in the test with HOP-92 NSCLC it was 1.13 µM; in the test on K-562 leukemia, 0.691 µM; in the test on OVCAR-5 ovarian, 4.75 µM; in the test on SF-268 CNS, 2.29 µM. Besides, the GI50 was 1.49 µM in the test on SF-539 CNS, 1.22 µM with SK-MEL-5 melanoma, 1.83 µM with SNB-19 CNS and 1.18 µM in the test on U251 CNS. Besides, the TGI in the test on 786-0 renal, in the test on HOP-62 NSCLC, in the test on HOP-92 NSCLC, in the test on K-562 leukemia, with OVCAR-5 ovarian and in the test with SF-268 CNS was above 25 µM throughout. Further, the TGI is 11.8 µM with SF-539 CNS, above 25 µM with SK-MEL-5 melanoma, above 25 µM in the test with SNB-19 CNS and above 25 µM in the test with U251 CNS.
For `COc1cc(/C=C(\NC(=O)c2ccccc2)c2nc3ccc4c(c3[nH]2)C(=O)c2ccccc2C4=O)cc(OC)c1OC`, the TGI in the test on 786-0 renal, in the test with HOP-62 NSCLC, with HOP-92 NSCLC, in the test on K-562 leukemia, in the test on OVCAR-5 ovarian and in the test with SF-268 CNS was above 100 µM each time. Further, the TGI in the test with SF-539 CNS, with SK-MEL-5 melanoma, in the test on SNB-19 CNS and in the test on U251 CNS was above 100 µM throughout.
On to `COc1ccc(C#Cc2ccc(=O)oc2-c2cc(OC)c(OC)c(OC)c2)cc1O`, for which the GI50 is 5.49 µM with 786-0 renal; 5.12 µM in the test with HOP-62 NSCLC; 0.575 µM in the test with HOP-92 NSCLC; 0.505 µM with K-562 leukemia; 24 µM with OVCAR-5 ovarian; 7.23 µM with SF-268 CNS. In addition, the GI50 is 6.27 µM with SF-539 CNS, 0.654 µM with SK-MEL-5 melanoma, 18 µM in the test on SNB-19 CNS and 5.4 µM in the test with U251 CNS. Also, the TGI in the test with 786-0 renal was above 33.2 µM; in the test on HOP-62 NSCLC, above 64.6 µM; in the test with HOP-92 NSCLC, 38.8 µM; with K-562 leukemia, above 100 µM; in the test on OVCAR-5 ovarian, above 100 µM; in the test on SF-268 CNS, above 90.8 µM. In addition, the TGI was 40.4 µM in the test on SF-539 CNS, above 46.1 µM in the test on SK-MEL-5 melanoma, above 100 µM in the test on SNB-19 CNS and above 100 µM in the test with U251 CNS.

These data come from PubChem BioAssay (NCI).
